Laboratory results published in patent US8192962B2, “Processes for detecting toxic substances” (Daikin Industries, Ltd., priority 2001, dated 2012).

Tested on: Stress protein genes
Assay: DNA chip mRNA expression in yeast, stress protein genes (Table 6)
Format: cell-based, Saccharomyces cerevisiae S288C
Description: Yeast (Saccharomyces cerevisiae S288C (α SUC2mal mel gap2 CUP1)) were incubated at 25° C. on YPD medium (yeast extract 1%, polypepton 2%, glucose 2%). One of toxic chemical substances was added to the cells at logarithmic growth phase, and the cells were further incubated for two hours. Cells were cultured without any chemical substance in the same condition, and were used as control. Concentrations of the chemical substances were defined to inhibit the growth of the yeast but not lead to death.
After completion of the incubation, the culture was centrifuged to collect the cells. To the cells, sodium acetate buffer (50 mM sodium acetate, 10 mM EDTA, 1% SDS) was added, and the mixture was shaken at 65° C. for five minutes, followed by returning to room temperature, and obtaining the supernatant, of which the procedures were repeated two times. To the supernatant, ½ amount of a solution of phenol/chloroform was added, and the mixture was centrifuged to give a supernatant, which was added with an equal amount of chloroform, and the mixture was centrifuged to give a supernatant. To the supernatant, an equal amount of isopropanol containing 0.3 M sodium acetate was added, and the mixture was allowed to stand at room temperature for 30 minutes, after which the mixture was centrifuged to give a sediment of the whole RNAs. Seventy % ethanol was added to the sediment, and the mixture was again centrifuged to give a sediment, which was then dried and dissolved in water. mRNA was isolated from the whole RNAs as followings. In view of the fact that a poly A chain is attached to the 3′ terminus of mRNA, a polynucleotide having a poly T structure which was immobilized on the surface of latex beads was used to trap the mRNA, and then the mRNA was washed and eluted with spine column (Oligotex-dT30<Super>mRNA Purification Kit, Takara). Reverse transcription of the mRNA was conducted with a reverse transcriptase (Super Script II Reverse Transcriptase; catalogue No. 18064-014, GibcoBRL) using fluorescence-labeled nucleotides to give cDNAs that were introduced with Cy3-dUTP or Cy5-dUTP during the reverse transcription.
The labeled cDNAs were dissolved in TE buffer (10mM Tris-HCl/1 mM EDTA, pH8.0), and the solution was dropped on the DNA chip containing the whole genes of yeast (DNA Chip Research Inc. Japan) so that the cDNAs were hybridized on the DNA chip at 65° C. for over 12 hours. The fluoresces intensity of the DNA chip was read with a scanner, and the ratio relative to the fluorescence intensity resulting from the absence of chemical substance was estimated as the following, which is shown in Tables 1 to 9: […]

Question: What does the source list for `[Cl][Pb][Cl]` [(4), PbCl2]?
Answer: The level of expressed mRNA in the presence of chemical substance/The level of expressed mRNA in the absence of chemical substance (yeast gene YAL005C): 0.9; The level of expressed mRNA in the presence of chemical substance/The level of expressed mRNA in the absence of chemical substance (yeast gene YAL015C): 1.9; The level of expressed mRNA in the presence of chemical substance/The level of expressed mRNA in the absence of chemical substance (yeast gene YBL075C): 1.6; The level of expressed mRNA in the presence of chemical substance/The level of expressed mRNA in the absence of chemical substance (yeast gene YBL093C): 1.4; The level of expressed mRNA in the presence of chemical substance/The level of expressed mRNA in the absence of chemical substance (yeast gene YBR044C): 1.9; The level of expressed mRNA in the presence of chemical substance/The level of expressed mRNA in the absence of chemical substance (yeast gene YBR054W): 1.7; The level of expressed mRNA in the presence of chemical substance/The level of expressed mRNA in the absence of chemical substance (yeast gene YBR067C): 0.9; The level of expressed mRNA in the presence of chemical substance/The level of expressed mRNA in the absence of chemical substance (yeast gene YBR072W): 10.5; The level of expressed mRNA in the presence of chemical substance/The level of expressed mRNA in the absence of chemical substance (yeast gene YBR126C): 1.2; The level of expressed mRNA in the presence of chemical substance/The level of expressed mRNA in the absence of chemical substance (yeast gene YBR169C): 1.9; The level of expressed mRNA in the presence of chemical substance/The level of expressed mRNA in the absence of chemical substance (yeast gene YCL035C): 1.7; The level of expressed mRNA in the presence of chemical substance/The level of expressed mRNA in the absence of chemical substance (yeast gene YCR021C): 8.6; The level of expressed mRNA in the presence of chemical substance/The level of expressed mRNA in the absence of chemical substance (yeast gene YCR083W): 1.8; The level of expressed mRNA in the presence of chemical substance/The level of expressed mRNA in the absence of chemical substance (yeast gene YDL022W): 1.5; The level of expressed mRNA in the presence of chemical substance/The level of expressed mRNA in the absence of chemical substance (yeast gene YDL025C): 1.5; The level of expressed mRNA in the presence of chemical substance/The level of expressed mRNA in the absence of chemical substance (yeast gene YDR033W): 1.5; The level of expressed mRNA in the presence of chemical substance/The level of expressed mRNA in the absence of chemical substance (yeast gene YDR077W): 2.1; The level of expressed mRNA in the presence of chemical substance/The level of expressed mRNA in the absence of chemical substance (yeast gene YDR098C): 0.8; The level of expressed mRNA in the presence of chemical substance/The level of expressed mRNA in the absence of chemical substance (yeast gene YDR155C): 1.8; The level of expressed mRNA in the presence of chemical substance/The level of expressed mRNA in the absence of chemical substance (yeast gene YDR258C): 1.4; The level of expressed mRNA in the presence of chemical substance/The level of expressed mRNA in the absence of chemical substance (yeast gene YDR293C): 1.4; The level of expressed mRNA in the presence of chemical substance/The level of expressed mRNA in the absence of chemical substance (yeast gene YDR436W): 1.4; The level of expressed mRNA in the presence of chemical substance/The level of expressed mRNA in the absence of chemical substance (yeast gene YDR513W): 2.6; The level of expressed mRNA in the presence of chemical substance/The level of expressed mRNA in the absence of chemical substance (yeast gene YDR519W): 1.6; The level of expressed mRNA in the presence of chemical substance/The level of expressed mRNA in the absence of chemical substance (yeast gene YEL030W): 1.1; The level of expressed mRNA in the presence of chemical substance/The level of expressed mRNA in the absence of chemical substance (yeast gene YEL039C): 5.1; The level of expressed mRNA in the presence of chemical substance/The level of expressed mRNA in the absence of chemical substance (yeast gene YER042W): 1.0; The level of expressed mRNA in the presence of chemical substance/The level of expressed mRNA in the absence of chemical substance (yeast gene YER057C): 1.8; The level of expressed mRNA in the presence of chemical substance/The level of expressed mRNA in the absence of chemical substance (yeast gene YER103W): 2.1; The level of expressed mRNA in the presence of chemical substance/The level of expressed mRNA in the absence of chemical substance (yeast gene YER125W): 0.9; The level of expressed mRNA in the presence of chemical substance/The level of expressed mRNA in the absence of chemical substance (yeast gene YFL014W): 11.0; The level of expressed mRNA in the presence of chemical substance/The level of expressed mRNA in the absence of chemical substance (yeast gene YFL016C): 0.9; The level of expressed mRNA in the presence of chemical substance/The level of expressed mRNA in the absence of chemical substance (yeast gene YFL020C): 1.2; The level of expressed mRNA in the presence of chemical substance/The level of expressed mRNA in the absence of chemical substance (yeast gene YFR052W): 1.5; The level of expressed mRNA in the presence of chemical substance/The level of expressed mRNA in the absence of chemical substance (yeast gene YGL073W): 1.0; The level of expressed mRNA in the presence of chemical substance/The level of expressed mRNA in the absence of chemical substance (yeast gene YGL115W): 2.0; The level of expressed mRNA in the presence of chemical substance/The level of expressed mRNA in the absence of chemical substance (yeast gene YGL181W): 1.1; The level of expressed mRNA in the presence of chemical substance/The level of expressed mRNA in the absence of chemical substance (yeast gene YGR088W): 2.4; The level of expressed mRNA in the presence of chemical substance/The level of expressed mRNA in the absence of chemical substance (yeast gene YHL028W): 0.5; The level of expressed mRNA in the presence of chemical substance/The level of expressed mRNA in the absence of chemical substance (yeast gene YHL046C): 1.3; The level of expressed mRNA in the presence of chemical substance/The level of expressed mRNA in the absence of chemical substance (yeast gene YHR030C): 2.9; The level of expressed mRNA in the presence of chemical substance/The level of expressed mRNA in the absence of chemical substance (yeast gene YHR057C): 0.9; The level of expressed mRNA in the presence of chemical substance/The level of expressed mRNA in the absence of chemical substance (yeast gene YHR104W): 1.9; The level of expressed mRNA in the presence of chemical substance/The level of expressed mRNA in the absence of chemical substance (yeast gene YIL011W): 0.6
